Values belong to the molecule of their own block, whether it stands above or below them.
What was measured:
THP‐1 cells = assay: IL6 expression and production in THP-1 cells upon ER stress (de novo vs hydrolysis pathway inhibitors); format: cell-based, human; conditions: THP-1, tunicamycin 5 µg/ml, Appendix Fig S2
Description: The human monocytic cell line THP‐1 was obtained from the American Type Culture Collection (ATCC, TIB‐202) and maintained in RPMI 1640 (Gibco, 31870) with 10% (v:v) heat‐inactivated fetal bovine serum (FBS, Sigma‐Aldrich, F0804), 1 mM sodium pyruvate (Gibco, 11360070), 2 mM L‐glutamine (Gibco, 25030081), 10 mM HEPES buffer (Gibco, 15630080), pH 7.2‐7.5, and 50 µM 2‐mercaptoethanol (Gibco, 31350010). To differentiate THP‐1 into macrophage‐like cells, THP‐1 cells were stimulated with 50 ng/ml phorbol 12‐myristate 13‐acetate (Sigma‐Aldrich, P8139) for 24 h and then incubated with fresh medium for another 48 h. HEK293T WT and HEK293T NOD1/2 dKO cells were generated as described (Dagil et al, 2016). HeLa inducible NOD1‐GFP and NOD2‐GFP cells were generated by co‐transfection of pcDNA5/FRT/TO‐EGFP‐NOD1 or pcDNA5/FRT/TO‐EGFP‐NOD2 (Addgene #131206 and #131207) together with pOG44 in a 9:1 ratio into HeLa FlpIN T‐REx cells (kindly provided by the Hentze Lab, EMBL, Heidelberg) using Lipofectamine 2000 (Thermo Fisher Scientific) and selected with 10 µg/ml blasticidin and 500 µg/ml hygromycin B. HeLa inducible NOD1‐GFP and NOD2‐GFP cells, human neonatal dermal fibroblasts, and HEK293T cells (DSMZ, ACC305) were maintained in complete Dulbecco’s modified Eagle’s medium (DMEM) 4.5 g/l glucose (Gibco, 10938) with 10% (v:v) heat‐inactivated FBS, 1 mM sodium pyruvate, and 2 mM L‐glutamine. To induce NOD1 or NOD2 expression, HeLa NOD1 or NOD2 cells were treated with 0.5 µg/ml or 0.25 µg/ml doxycycline for at least 16 h, respectively. All cells have been checked for mycoplasma contamination regularly. […]
(§1) Total RNA was isolated with TRIzol reagent, as described by the manufacturer (Invitrogen). […] Gene expression was normalized to glyceraldehyde‐3‐phosphate dehydrogenase (GAPDH), and fold changes were calculated against corresponding controls. qRT–PCR data were representative of at least three independent experiments, with at least 2 technical replicates per experiment. […]

[1] = system: THP‐1 cells, BMDMs, and human CD14+ monocytes; assay: IL6 expression and production upon tunicamycin-induced ER stress with sphingolipid pathway inhibitors; format: cell-based; conditions: inhibitor pretreatment, tunicamycin 5 µg/ml; all types of cells
Description: (§2) The human monocytic cell line THP‐1 was obtained from the American Type Culture Collection (ATCC, TIB‐202) and maintained in RPMI 1640 (Gibco, 31870) with 10% (v:v) heat‐inactivated fetal bovine serum (FBS, Sigma‐Aldrich, F0804), 1 mM sodium pyruvate (Gibco, 11360070), 2 mM L‐glutamine (Gibco, 25030081), 10 mM HEPES buffer (Gibco, 15630080), pH 7.2‐7.5, and 50 µM 2‐mercaptoethanol (Gibco, 31350010). To differentiate THP‐1 into macrophage‐like cells, THP‐1 cells were stimulated with 50 ng/ml phorbol 12‐myristate 13‐acetate (Sigma‐Aldrich, P8139) for 24 h and then incubated with fresh medium for another 48 h. HEK293T WT and HEK293T NOD1/2 dKO cells were generated as described (Dagil et al, 2016). […]
as §1

[2] = system: human dermal fibroblasts (HDFs); assay: S1P quantification by ELISA in cell lysates; format: cell-based; conditions: primary fibroblasts, Fig 3C
Description: Human neonatal dermal fibroblasts were grown in DMEM full medium. For each condition, 2x T75 flask cells were required. After 4‐h stimulation with various stressors, cells were washed with PBS and collected in lysis buffer (20 mM PIPES PH7.4, 150 mM NaCl, 1 mM EGTA, 1% v/v Triton X‐100, 1.5 mM MgCl2, 0.1% SDS, 1X PhosSTOP, 1X Protease inhibitor cocktail without EDTA). Protein concentration was measured by BCA assay kit (Thermo Fisher) and diluted with delipidized serum to 1 µg/µl. Then, the diluted samples were added into S1P ELISA plates according to the instructions.

BMDMs and fibroblasts = assay: Cell death upon stressor treatment; format: cell-based; conditions: same concentration
Description: Cell viability assays were performed with CellTiter 96 AQueous one solution reagent (Promega) according to the manufacturer’s instructions. Cell viability upon various stimulations was normalized to corresponding controls.

NOD1 [3] = biological target: T1, NOD1 (Homo sapiens, UniProt Q9Y239); assay: Microscale thermophoresis (MST) binding to purified NOD1-GFP; conditions: read-out: Kd value of ADP alone with NOD1
T1 sequence (Q9Y239 1-953): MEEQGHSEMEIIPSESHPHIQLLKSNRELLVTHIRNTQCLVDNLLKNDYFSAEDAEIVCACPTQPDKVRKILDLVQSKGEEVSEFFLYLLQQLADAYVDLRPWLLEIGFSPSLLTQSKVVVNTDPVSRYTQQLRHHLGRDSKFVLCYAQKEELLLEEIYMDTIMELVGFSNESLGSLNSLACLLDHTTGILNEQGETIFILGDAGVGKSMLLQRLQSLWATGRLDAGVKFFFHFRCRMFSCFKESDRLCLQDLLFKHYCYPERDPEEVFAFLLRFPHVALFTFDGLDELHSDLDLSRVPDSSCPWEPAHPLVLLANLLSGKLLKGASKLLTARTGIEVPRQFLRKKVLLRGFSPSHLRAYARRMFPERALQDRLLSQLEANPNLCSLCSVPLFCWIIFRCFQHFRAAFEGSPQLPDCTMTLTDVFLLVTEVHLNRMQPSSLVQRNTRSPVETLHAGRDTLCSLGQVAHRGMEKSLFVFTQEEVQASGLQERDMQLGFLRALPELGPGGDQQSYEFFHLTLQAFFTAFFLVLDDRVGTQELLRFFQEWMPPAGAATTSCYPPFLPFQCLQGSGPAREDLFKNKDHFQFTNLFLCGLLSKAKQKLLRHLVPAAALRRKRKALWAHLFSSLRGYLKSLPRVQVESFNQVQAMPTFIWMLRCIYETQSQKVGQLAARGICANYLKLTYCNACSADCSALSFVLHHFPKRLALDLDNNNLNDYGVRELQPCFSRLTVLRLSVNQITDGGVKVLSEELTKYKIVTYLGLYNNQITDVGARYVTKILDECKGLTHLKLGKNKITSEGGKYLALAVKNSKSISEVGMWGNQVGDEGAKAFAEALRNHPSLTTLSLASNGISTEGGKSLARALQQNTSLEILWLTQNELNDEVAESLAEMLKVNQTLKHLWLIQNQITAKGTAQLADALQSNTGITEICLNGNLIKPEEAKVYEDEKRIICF
Description: (§3) The lysates were incubated with 2 ml GFP‐Trap agarose at 4°C for 4 h. The agarose was collected with Poly‐Prep columns by gravity flow. […] To remove heat shock proteins, columns were further washed with 50 ml wash buffer III (50 mM Tris–HCl, pH 7.5, 150 mM NaCl, 5 mM MgCl2+, 1 mM ATP). To elute the proteins, the agarose was mixed with 2 ml elution buffer (100 mM Glycine, pH 2.5) for 1 min and the eluted proteins were immediately neutralized with 0.2 ml of 1 M Tris, pH 10.5.

NOD2 = NOD2 (Homo sapiens, UniProt Q9HC29); assay: Microscale thermophoresis (MST) binding to purified NOD2-GFP; conditions: read-out: Kd value of ADP alone with NOD2
Description: as §3

NOD1 [4] = system: NOD1; set-up: method as in Askari et al, 2012; conditions: quoted by referee; ref Askari et al, 2012; read-out: NOD1 affinity, IC50; cited from earlier work
[5] = system: HDFs and HeLa inducible NOD1 or NOD2 cells; assay: IL6 expression and production in response to various stressors with sphingosine kinase inhibition; format: cell-based, human; conditions: SPHKi 50 µM (Fig 3D-G)
Description: as §2, §1

Sequence of NOD2 (Q9HC29 whole entry): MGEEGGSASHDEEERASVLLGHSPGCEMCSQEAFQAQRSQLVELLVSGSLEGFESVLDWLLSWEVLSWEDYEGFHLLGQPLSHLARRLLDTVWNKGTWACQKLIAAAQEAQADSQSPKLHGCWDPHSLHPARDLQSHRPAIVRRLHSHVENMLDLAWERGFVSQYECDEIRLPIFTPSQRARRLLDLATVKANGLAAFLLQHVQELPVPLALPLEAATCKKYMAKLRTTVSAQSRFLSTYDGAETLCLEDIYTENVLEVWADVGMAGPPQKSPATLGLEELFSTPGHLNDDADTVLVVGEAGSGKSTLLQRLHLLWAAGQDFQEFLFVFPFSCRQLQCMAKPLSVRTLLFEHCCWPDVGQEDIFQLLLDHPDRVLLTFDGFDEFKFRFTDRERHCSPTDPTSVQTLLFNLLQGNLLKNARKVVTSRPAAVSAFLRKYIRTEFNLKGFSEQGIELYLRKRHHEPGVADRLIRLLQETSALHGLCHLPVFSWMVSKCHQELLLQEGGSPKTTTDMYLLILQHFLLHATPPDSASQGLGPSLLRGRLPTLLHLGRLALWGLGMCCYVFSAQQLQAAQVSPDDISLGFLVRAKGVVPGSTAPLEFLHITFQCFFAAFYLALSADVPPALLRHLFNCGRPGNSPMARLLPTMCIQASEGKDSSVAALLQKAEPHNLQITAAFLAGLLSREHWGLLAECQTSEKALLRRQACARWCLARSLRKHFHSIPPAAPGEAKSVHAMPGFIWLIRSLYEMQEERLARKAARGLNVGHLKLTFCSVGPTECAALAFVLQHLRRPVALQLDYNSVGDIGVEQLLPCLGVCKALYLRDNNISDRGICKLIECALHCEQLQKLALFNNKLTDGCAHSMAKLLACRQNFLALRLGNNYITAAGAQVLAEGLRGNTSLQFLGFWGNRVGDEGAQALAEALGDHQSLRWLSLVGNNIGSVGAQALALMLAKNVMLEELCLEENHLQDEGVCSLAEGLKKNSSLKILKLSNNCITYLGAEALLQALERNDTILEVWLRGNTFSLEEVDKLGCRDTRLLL

Structure (SMILES): CN(C)CCCN1c2ccccc2CCc2ccccc21 [imipramine]
IL6 expression and production upon ER stress (THP‐1 cells): abrogated

Structure (SMILES): N[C@H]1CON=C1O [L‐cycloserine]
IL6 expression and production upon ER stress (THP‐1 cells): not

Structure (SMILES): O=C(/C=C/c1ccc(/C=C/C(=O)Nc2ccc(C3=NCCN3)cc2)cc1)Nc1ccc(C2=NCCN2)cc1 [GW4869]
IL6 expression and production upon ER stress (THP‐1 cells): not

Structure (SMILES): COc1ccc(/C=C/C(=O)c2c(-c3ccccc3)c3ccccc3[nH]c2=O)cc1 [ceranib‐2]
IL6 expression and production upon tunicamycin-induced ER stress [1]: abolished

Structure (SMILES): C[C@@H]1C[C@@H]([C@H](O)CC2CC(=O)NC(=O)C2)C(=O)[C@@H](C)C1 [CHX, cycloheximide]
Level of S1P in fibroblasts upon stressor [2]: highest level of S1P in fibroblasts
Cell death in BMDMs compared with fibroblasts (BMDMs and fibroblasts): higher

Kd (NOD1 [3]): ~100 nM
Kd (NOD2): ~150 nM
Structure (SMILES): Nc1ncnc2c1ncn2[C@@H]1O[C@H](COP(=O)(O)OP(=O)(O)O)[C@@H](O)[C@H]1O [ADP]
IC50 (NOD1 [4]): ~190 nM

Structure (SMILES): Oc1ccc(Nc2nc(-c3ccc(Cl)cc3)cs2)cc1 [SKI‐II]
IL6 expression and production upon tunicamycin-induced ER stress [1]: abolished
IL6 expression and production in response to various stressors [5]: markedly diminished

Structure (SMILES): Nc1ncnc2c1ncn2[C@@H]1O[C@H](COP(=O)(O)OP(=O)(O)OP(=O)(O)O)[C@@H](O)[C@H]1O [ATP]
IC50 (NOD1 [4]): ~15 nM

Reference: publication PMC8246065 (The EMBO Journal, 2021)
